Laboratory results taken from paper PMC6896172, “Successful Targeting of the Warburg Effect in Prostate Cancer by Glucose-Conjugated 1,4-Naphthoquinones” (Cancers, 2019).

What was measured:
PC-3 cells = test: MTT cytotoxicity assay in PC-3 cells; type: cell-based, human; details: for IC50: Homo sapiens, PC-3, 48 h, 48 h of treatment; for SI [IC50(PNT2) / IC50(PC-3)]: ratio of IC50 in PNT2 cells to IC50 in PC-3 cells, 48 h
Description: (§1) For general experiments human prostate cancer cell lines PC-3 and DU145 (docetaxel-resistant, androgen-independent, AR-FL(−), AR-V7(−)), 22Rv1 and VCaP (docetaxel-sensitive, androgen-independent, AR-FL(+), AR-V7(+), and LNCaP (docetaxel sensitive, androgen-dependent, AR-FL(+), AR-V7(−) were used. PC-3, 22Rv1, LNCaP cells as well as the human prostate non-cancer cells PNT2 and RWPE-1 were purchased from ATCC (Manassas, VA, USA). VCaP were purchased from ECACC (Salisbury, UK). The human fibroblast cell line MRC-9, the human embryonic kidney cell line HEK 293T, as well as the human umbilical vascular endothelial cell line HUVEC were kindly donated by Prof. Dr. Dr. med. Sonja Loges (University Medical Center Hamburg-Eppendorf, Hamburg, Germany). Cells were cultured according to the manufacturers’ instructions and were recently authenticated by a commercial service (Multiplexion, Heidelberg, Germany). Culture conditions are described in the Supplementary Information.
(§2) MTT (3-(4,5-dimethylthiazol-2-yl)-2,5-diphenyltetrazolium bromide) cytotoxicity assay was used for the evaluation of cytotoxicity of the compounds or their combinations. Experiments were performed as previously described. In brief, 6000 cells/well were seeded in 96-well plate, incubated overnight, and treated with the drugs in 100 µL/well of 10% FBS/RPMI media containing 2 g/L of D-(+)-glucose for 48 h, unless otherwise stated. For 2 h treatment the cells were treated with the drugs for 2 h in the culture media, then the media was exchanged to fresh drug-free media (100 µL/well) containing MTT reagent and the further steps were performed as previously described.
(§3) Table S4. Cytotoxic activity of the synthesized compounds. Cytotoxicity was determined in human prostate cancer PC-3 cells versus human prostate non-cancer
(§4) PNT2 cells after 48 h of treatment, as well as its ratio. IC50 was evaluated using MTT assay. SI–selectivity index. #–the IC50s in both cell lines were >100 µM.
(§5) Anisomycin was used as a reference substance.
(§6) No Formula IC50(PC-3) IC50(PNT2) SI […]

PNT2 cells = test: MTT cytotoxicity assay in PNT2 cells; type: cell-based, human; details: 48 h of treatment
Description: as §1, §2, §3, §4, §5, §6

HUVEC cells = test: MTT cytotoxicity assay in HUVEC cells; type: cell-based; details: Homo sapiens, 48 h of treatment, non-cancer
Experimental: (§7) Dr. Dr. med. Sonja Loges (University Medical Center Hamburg-Eppendorf, Hamburg, Germany). Cells were cultured according to the manufacturers’ instructions and were recently authenticated by a commercial service (Multiplexion, Heidelberg, Germany). Culture conditions are described in the Supplementary Information.
as §2

RWPE-1 cells = test: MTT cytotoxicity assay in RWPE-1 cells; type: cell-based; details: Homo sapiens, 48 h of treatment, non-cancer
Experimental: as §7, §2

22Rv1 cells [1] = test: MTT cytotoxicity assay in 22Rv1 cells; type: cell-based, human; details: Homo sapiens
Experimental: as §7, §2

VCaP cells = test: MTT cytotoxicity assay in VCaP cells; type: cell-based; details: Homo sapiens, 48 h of treatment, cancer
Experimental: as §7, §2

MRC-9 cells = test: MTT cytotoxicity assay in MRC-9 cells; type: cell-based; details: Homo sapiens, MRC9, 48 h of treatment, non-cancer
Experimental: as §7, §2

22Rv1 cells [2] = test: Trypan blue exclusion viability assay; type: cell-based; details: Homo sapiens, 48 h of treatment
Experimental: The in vitro effect of the drugs on cell viability and proliferation was evaluated using trypan blue exclusion assay as described before with minor modifications. In brief, cells (0.2 × 10^6 cells/well) were seeded in 12-well plates, incubated overnight, the media was replaced with fresh media (1 mL/well) and treated with the drugs for 48 h. Cells were harvested by trypsination and the viability was measured using trypan blue staining and Beckman Coulter Vi-CELL (Beckman Coulter, Krefeld, Germany).

22Rv1 cells [3] = test: Western blotting of treated cells; type: cell-based, human; details: for AR-FL and AR-V7 expression: 48 h treatment; for LC3B-II and SQSTM1 levels (autophagy markers): pre-cytotoxic and cytotoxic concentrations, 48 h
Experimental: Preparation of protein extracts for western blotting was performed as described previously. In brief, for western blotting, 1 × 10^6 cells/well were seeded in Petri dishes (ø 6 cm TC Dish (Sarstedt, Numbrecht, Germany) in 5 mL/dish), incubated overnight and treated with drugs in 5 mL/dish for an indicated time. Cells were harvested using a cell scraper, pelleted, and resuspended in the lysis buffer containing protease and phosphatase inhibitors. Further sample preparation and western blotting were performed as previously described with slight modifications. Relative optical density of the detected bands was quantified with Quantity One 4.6 software (Bio-Rad, Hercules, CA, USA). The primary and secondary antibodies used are listed in the Supplementary Information.

DU145 cells = test: MTT cytotoxicity assay in DU145 cells; type: cell-based; details: Homo sapiens, DU-145, 48 h of treatment, cancer
Experimental: as §7, §2

LNCaP cells = test: MTT cytotoxicity assay in LNCaP cells; type: cell-based; details: Homo sapiens, 48 h of treatment, cancer
Experimental: as §7, §2

22Rv1 cells [4] = test: Colony formation assay; type: cell-based, human; details: 22Rv1 cells treated with non-cytotoxic concentrations for 48 h
Experimental: Colony formation assays were performed as described before. In brief, cells were treated with the drugs for 48 h and then 100 alive cells were plated into each well of 6-well plates and incubated for 10 days. Surviving colonies were fixed, stained with Giemsa solution and counted.

HEK293 cells = test: MTT cytotoxicity assay in HEK293 cells; type: cell-based; details: Homo sapiens, 48 h of treatment, non-cancer
Experimental: as §7, §2

[5] = 22Rv1, 48 h of treatment, cancer, read-out: IC50 (22Rv1)
[6] = 22Rv1 cells, 2 h treatment, read-out: IC50 after 2 h of treatment

SMILES	IC50 (PC-3 cells)	SI [IC50(PNT2) / IC50(PC-3)] (PC-3 cells)	IC50 (PNT2 cells; Homo sapiens, PNT2, 48 h)	also measured
COC1=CC(=O)c2ccccc2C1=O [Compound 1]	9.33 µM	1.55	14.5 µM	
CC1(C)OC2OC3C(COC4=CC(=O)c5ccccc5C4=O)OC(C)(C)OC3C2O1 (stereo not shown) [Compound 2]	13.1 µM	1.24	16.2 µM	
CC1(C)OC2OC(C(O)COC3=CC(=O)c4ccccc4C3=O)C(O)C2O1 (stereo not shown) [Compound 3]	24.2 µM	1.28	31.1 µM	
O=C1C=C(OCC2OC(O)C(O)C(O)C2O)C(=O)c2ccccc21 (stereo not shown) [Compound 4]	> 100 µM		> 100 µM	
COC1=CC(=O)c2c(O)cccc2C1=O [Compound 5]	4.46 µM	1.31	5.84 µM	
CC1(C)OC2OC3C(COC4=CC(=O)c5c(O)cccc5C4=O)OC(C)(C)OC3C2O1 (stereo not shown) [Compound 6]	4.51 µM	0.91	4.12 µM	
O=C1C(OC[C@H]2OC(O)[C@H](O)[C@@H](O)[C@@H]2O)=CC(=O)c2c(O)cccc21 (stereo partly shown) [Compound 8]			79.3 µM	IC50 (HUVEC cells): 73 µM; IC50 (RWPE-1 cells): 49.8 µM; IC50 (22Rv1 cells [1]; [5]): 30.1 µM; IC50 (22Rv1 cells [1]; [6]): 92.4 µM; IC50 (VCaP cells): 56.7 µM; IC50 (MRC-9 cells): 31.6 µM; IC50 (22Rv1 cells [2]): 19.4 µM; AR-FL and AR-V7 expression (22Rv1 cells [3]): downregulated both, AR full length (AR-FL) and AR-V7; LC3B-II and SQSTM1 levels (autophagy markers) (22Rv1 cells [3]): accumulation of both, LC3B-II and SQSTM1; IC50 (PNT2 cells): 73.7 µM; IC50 (DU145 cells): 10.6 µM; IC50 (LNCaP cells): 20 µM; cancer cell colony formation (22Rv1 cells [4]): suppress cancer cell colony formation; IC50 (HEK293 cells): 40 µM
COC1=CC(=O)c2cccc(O)c2C1=O [Compound 9]	2.85 µM	1.42	4.05 µM	
CC1(C)OC2OC3C(COC4=CC(=O)c5cccc(O)c5C4=O)OC(C)(C)OC3C2O1 (stereo not shown) [Compound 10]	4.16 µM	1.53	6.37 µM	
O=C1C=C(OC[C@H]2OC(O)[C@H](O)[C@@H](O)[C@@H]2O)C(=O)c2c(O)cccc21 (stereo partly shown) [Compound 12]			103 µM	IC50 (HUVEC cells): 45.7 µM; IC50 (RWPE-1 cells): 48 µM; IC50 (22Rv1 cells [1]; [5]): 23.4 µM; IC50 (22Rv1 cells [1]; [6]): 94.9 µM; IC50 (VCaP cells): 57.5 µM; IC50 (MRC-9 cells): 153 µM; IC50 (22Rv1 cells [2]): 14.6 µM; AR-FL and AR-V7 expression (22Rv1 cells [3]): downregulated both, AR full length (AR-FL) and AR-V7; LC3B-II and SQSTM1 levels (autophagy markers) (22Rv1 cells [3]): accumulation of both, LC3B-II and SQSTM1; IC50 (DU145 cells): 37.1 µM; IC50 (LNCaP cells): 24 µM; cancer cell colony formation (22Rv1 cells [4]): suppress cancer cell colony formation; IC50 (HEK293 cells): 69.4 µM
COC1=CC(=O)c2c(O)ccc(O)c2C1=O [Compound 13]	5.38 µM	1.83	9.84 µM	
CC1(C)OC2OC3C(COC4=CC(=O)c5c(O)ccc(O)c5C4=O)OC(C)(C)OC3C2O1 (stereo not shown) [Compound 14]	17.7 µM	1.05	18.6 µM	
CC1(C)OC2OC(C(O)COC3=CC(=O)c4c(O)ccc(O)c4C3=O)C(O)C2O1 (stereo not shown) [Compound 15]	5.46 µM	1.03	5.65 µM	
O=C1C=C(OCC2OC(O)C(O)C(O)C2O)C(=O)c2c(O)ccc(O)c21 (stereo not shown) [Compound 16]	> 100 µM		> 100 µM	
CCc1c(O)c2c(c(O)c1OC)C(=O)C(OC)=CC2=O [Compound 17]	21.8 µM	0.57	12.5 µM	
CCc1c(O)c2c(c(O)c1OC)C(=O)C(OCC1OC(C)(C)OC3C1OC1OC(C)(C)OC13)=CC2=O (stereo not shown) [Compound 18]	13.6 µM	0.7	9.56 µM	
CCc1c(O)c2c(c(O)c1OC)C(=O)C(OCC(O)C1OC3OC(C)(C)OC3C1O)=CC2=O (stereo not shown) [Compound 19]	27.9 µM	1.49	41.7 µM	
CCc1c(O)c2c(c(O)c1OC)C(=O)C(OC[C@H]1OC(O)[C@H](O)[C@@H](O)[C@@H]1O)=CC2=O (stereo partly shown) [Compound 20]	99 µM	0.28	27.9 µM	
CCc1c(O)c2c(c(O)c1Cl)C(=O)C(OC)=CC2=O [Compound 21]	31.6 µM	0.87	27.4 µM	
CCc1c(O)c2c(c(O)c1Cl)C(=O)C(OCC1OC(C)(C)OC3C1OC1OC(C)(C)OC13)=CC2=O (stereo not shown) [Compound 22]	4.24 µM	0.7	2.98 µM	
CCc1c(O)c2c(c(O)c1Cl)C(=O)C(OCC(O)C1OC3OC(C)(C)OC3C1O)=CC2=O (stereo not shown) [Compound 23]	7.35 µM	0.71	5.21 µM	
CCc1c(O)c2c(c(O)c1Cl)C(=O)C(OC[C@H]1OC(O)[C@H](O)[C@@H](O)[C@@H]1O)=CC2=O (stereo partly shown) [Compound 24]	> 100 µM		> 100 µM	
COC1=CC(=O)c2c(O)c(Cl)c(Cl)c(O)c2C1=O [Compound 25]	2.3 µM	0.53	1.22 µM	
CC1(C)OC2OC3C(COC4=CC(=O)c5c(O)c(Cl)c(Cl)c(O)c5C4=O)OC(C)(C)OC3C2O1 (stereo not shown) [Compound 26]	2.75 µM	0.75	2.07 µM	
CC1(C)OC2OC(C(O)COC3=CC(=O)c4c(O)c(Cl)c(Cl)c(O)c4C3=O)C(O)C2O1 (stereo not shown) [Compound 27]	3.47 µM	1.29	4.47 µM	
O=C1C=C(OC[C@H]2OC(O)[C@H](O)[C@@H](O)[C@@H]2O)C(=O)c2c(O)c(Cl)c(Cl)c(O)c21 (stereo partly shown) [Compound 28]	> 100 µM		> 100 µM	
